Measured values reported in patent US11564904B2, “Gingko diterpene lactone composition” (Jiangsu Kanion Pharmaceutical Co., Ltd., priority 2017, dated 2023).

Columns and labels:
[1] = system: right middle cerebral artery occlusion (MCAO) model; experiment: Focal cerebral ischemia-reperfusion injury (MCAO) model in rats; type: in vivo, SD rats; details: nimodipine 10.8 mg/kg, x ± s, n = 10
[2] = system: PAF-induced platelet aggregation; experiment: In vitro PAF-induced platelet aggregation rate of rabbits; type: cell-based, New Zealand white rabbits; details: compositions 9.26 μg/ml, nimodipine 0.05 μg/ml
Method: (§1) Rabbits were treated with procaine by local anesthesia, carotid arterial cannulation and bleeding. […] Incubation was performed for 5 min, then 10 μl of 146 μg/ml ADP and 10 μl of 10 μg/ml PAF were added in turn. […] Aggregation inhibition rate (%)=(maximum aggregation rate of blank control group−maximum aggregation rate of administration group)/maximum aggregation rate of blank control group×100%. The experimental data was expressed as x±s and analyzed by SPSS 17.0 statistical software. The comparison of means between multiple groups was performed by one-way analysis of variance. The comparison of sample means between two groups was performed by q test. P<0.05 was considered statistically significant.

[3] = system: ADP-induced platelet aggregation; experiment: In vitro ADP-induced platelet aggregation rate of rabbits; type: cell-based, New Zealand white rabbits; details: compositions 9.26 μg/ml, nimodipine 0.05 μg/ml
Method: as §1

[4] = serum 24 hours after reperfusion, compositions 2.4 g·kg^−1 i.v.
[5] = PAF 0.37 μg/ml, rabbit PRP, x ± s, n = 10
[6] = ADP 5.4 μg/ml, rabbit PRP, x ± s, n = 10

## COCCOC(=O)C1=C(C)NC(C)=C(C(=O)OC(C)C)C1c1cccc([N+](=O)[O-])c1 (stereo not shown) [Nimodipine]
[1]; TTC staining 24 hours after re-perfusion, compositions 2.4 g·kg^−1 i.v.
  Infarct size %: 15.49 ± 5.94%
[1]; brain water content 24 hours after re-perfusion, compositions 2.4 g·kg^−1 i.v.
  BWC %: 68.36 ± 8.97%
[1]; rat MCAO, 3 h ischemia, after reperfusion, compositions 2.4 g·kg^−1 tail vein injection
  Neurologic score: 2.70 ± 0.95
[1]; [4]
  MDA/nmol* mg^−1: 5.79 ± 1.75 nmol/mg
  SOD/U*mg^−1: 26.94 ± 4.37 U*mg^−1
[2]; Oryctolagus cuniculus, Platelet, PAF-induced, from maximum aggregation rate vs blank control
  inhibition at 0.05 µg/mL: 27%
[2]; [5]
  Platelet aggregation rate 1 min: 27.13 ± 2.06
  Platelet aggregation rate 5 min: 42.18 ± 9.73
  Platelet aggregation rate Max: 48.08 ± 5.82
[3]; [6]
  Platelet aggregation rate 1 min: 26.46 ± 4.41
  Platelet aggregation rate 5 min: 38.33 ± 5.80
  Platelet aggregation rate Max: 41.85 ± 4.87
[3]; Oryctolagus cuniculus, Platelet, ADP-induced, from maximum aggregation rate vs blank control
  inhibition at 0.05 µg/mL: 16%
